Values joined by “and” are separate entries in the source; they are usually repeats but may differ in a detail not shown here. Equal entries are not always repeated.
Assay: Drug release assay from Fmoc-FF/S hydrogel into PBS release buffer, HPLC analysis
Format: physicochemical
Details: for duration of sustained release from the gel: 7-day study; for release profile from the hydrogel compared with control PBS solution: Fmoc-FF/S hydrogel; for time over which significant drug concentration continued to be released: gel
Procedure: (§1) An 1100 Series high-performance liquid chromatography pump (Agilent, USA) was used for the analysis which was performed using acetonitrile with 0.1% TFA and water with 0.1% TFA. […] This concentration was kept constant until 16 mins; after that the gradient was decreased, reaching 40% (v/v) acetonitrile in water at 19 mins. The data was then processed manually using the software ‘Agilent Chemstation.’
The triplicate samples of release buffer were analysed by HPLC, and for the peaks corresponding to each model drug compound the peak area was measured. The average peak area was recorded, and using a standard curve prepared for each compound the concentration of each was determined.
At each of the specified time points the release buffer remaining in the wells was transferred to HPLC vials and stored at 4° C. until HPLC analysis was performed.
as §1, with “mins when” for “mins; after that”, “decreased to” for “decreased, reaching”
The triplicate samples of release buffer were analysed by HPLC, and for the peaks corresponding to each model drug compound the peak area was measured. The average peak area was recorded, and using standard curve prepared for each compound the concentration of each was determined.

[1] = 30 min, 2 mM control solution of drug in PBS, release buffer PBS 37° C.
[2] = 30 min, drug in Fmoc-FF/S gel, release buffer PBS 37° C.

| SMILES | Concentration (ug/mL) Control [1] | Concentration (ug/mL) Gel [2] | Concentration (ug/mL) Gel (3 h, Fmoc-FF/S gel) | Concentration (ug/mL) Control (3 h, control solution in PBS) | Concentration (ug/mL) Gel (6 h, Fmoc-FF/S gel) | Concentration (ug/mL) Control (6 h, control solution in PBS) | Concentration (ug/mL) Gel (9 h, Fmoc-FF/S gel) | Concentration (ug/mL) Control (9 h, control solution in PBS) | Concentration (ug/mL) Gel (24 h, Fmoc-FF/S gel) | Concentration (ug/mL) Control (24 h, control solution in PBS) | Concentration (ug/mL) Gel (48 h, Fmoc-FF/S gel) | Concentration (ug/mL) Control (48 h, control solution in PBS) | Concentration (ug/mL) Gel (72 h, Fmoc-FF/S gel) | Concentration (ug/mL) Control (72 h, control solution in PBS) | Concentration (ug/mL) Gel (5 d, Fmoc-FF/S gel) | Concentration (ug/mL) Control (5 d, control solution in PBS) | Concentration (ug/mL) Gel (7 d, Fmoc-FF/S gel) | Concentration (ug/mL) Control (7 d, control solution in PBS) | duration of sustained release from the gel (Fmoc-FF/S gel) | release profile from the hydrogel compared with control PBS solution | further results |
| --- | --- | --- | --- | --- | --- | --- | --- | --- | --- | --- | --- | --- | --- | --- | --- | --- | --- | --- | --- | --- | --- |
| CC(C)NCC(O)COc1ccc(CCOCC2CC2)cc1 (stereo not drawn) [Betaxolol] | 10.34 µg/mL | 0.67 µg/mL | 9.08 µg/mL | 22.71 µg/mL | 6.37 µg/mL | 0.90 µg/mL | 2.98 µg/mL | 0.07 µg/mL | 5.15 µg/mL | 0 µg/mL | 1.49 µg/mL | 0 µg/mL | 0.27 µg/mL | 0 µg/mL | 0.11 µg/mL | 0 µg/mL | 0 µg/mL | 0 µg/mL | 5 days |  | release time from the gel (10 mM Fmoc-FF/S gel): 5 days; release time from the control insert (control solution in PBS): 9 h |
| CC(C)n1c(/C=C/[C@H](O)C[C@H](O)CC(=O)O)c(-c2ccc(F)cc2)c2ccccc21 (racemic) [Fluvastatin] |  |  |  |  |  |  |  |  |  |  |  |  |  |  |  |  |  |  |  | slower |  |
| CC(C)NCC(O)c1ccc(NS(C)(=O)=O)cc1 (stereo not drawn) [Sotalol] |  |  |  |  |  |  |  |  |  |  |  |  |  |  |  |  |  |  |  | slower |  |

Now from value to compound, other results behind:

| Concentration (ug/mL) Control [1] | Concentration (ug/mL) Gel [2] | Concentration (ug/mL) Gel (3 h, Fmoc-FF/S gel) | Concentration (ug/mL) Control (3 h, control solution in PBS) | Concentration (ug/mL) Gel (6 h, Fmoc-FF/S gel) | Concentration (ug/mL) Control (6 h, control solution in PBS) | Concentration (ug/mL) Gel (9 h, Fmoc-FF/S gel) | Concentration (ug/mL) Control (9 h, control solution in PBS) | Concentration (ug/mL) Gel (24 h, Fmoc-FF/S gel) | Concentration (ug/mL) Control (24 h, control solution in PBS) | Concentration (ug/mL) Gel (48 h, Fmoc-FF/S gel) | Concentration (ug/mL) Control (48 h, control solution in PBS) | Concentration (ug/mL) Gel (72 h, Fmoc-FF/S gel) | Concentration (ug/mL) Control (72 h, control solution in PBS) | Concentration (ug/mL) Gel (5 d, Fmoc-FF/S gel) | Concentration (ug/mL) Control (5 d, control solution in PBS) | Concentration (ug/mL) Gel (7 d, Fmoc-FF/S gel) | Concentration (ug/mL) Control (7 d, control solution in PBS) | duration of sustained release from the gel (Fmoc-FF/S gel) | release profile from the hydrogel compared with control PBS solution | SMILES | further results |
| --- | --- | --- | --- | --- | --- | --- | --- | --- | --- | --- | --- | --- | --- | --- | --- | --- | --- | --- | --- | --- | --- |
| 17.8 µg/mL | 0.03 µg/mL | 7.02 µg/mL | 36.4 µg/mL | 5.38 µg/mL | 0.06 µg/mL | 4.61 µg/mL | 0 µg/mL | 7.78 µg/mL | 0 µg/mL | 7.49 µg/mL | 0 µg/mL | 4.02 µg/mL | 0 µg/mL | 3.81 µg/mL | 0 µg/mL | 2.05 µg/mL | 0 µg/mL | > 7 days and 7 days | altered significantly | CC(C)NCC(O)COc1cccc2ccccc12 (stereo not drawn) [Propranolol] | time by which drug release was below measurable limits (control): ≤ 9 h; time over which significant drug concentration continued to be released (concentration of the peptides 10 mM): ≥ 72 h; time over which significant drug concentration continued to be released (concentration of the peptides 40 mM): ≥ 72 h |
|  |  |  |  |  |  |  |  |  |  |  |  |  |  |  |  |  |  |  | slower | CC[C@H](C)C(=O)O[C@H]1C[C@H](O)C=C2C=C[C@H](C)[C@H](CC[C@@H](O)C[C@@H](O)CC(=O)O)[C@H]21 [Pravastatin] |  |
|  |  |  |  |  |  |  |  |  |  |  |  |  |  |  |  |  |  | 7 days |  | C=C[C@H]1C[N@]2CC[C@H]1C[C@@H]2[C@@H](O)c1ccnc2ccc(OC)cc12 [Quinidine] | drug still present in the remaining gel residue at the end of the experiment (10 mM Fmoc-FF/S gel, HPLC, end of 7-day study): 4.5%; release time from the control insert (control solution in PBS): 9 h; total release corresponding to control results (control solution in PBS): 85% |

From patent publication US20190321291A1, “3D Printing and Drug Delivery” (Biogelx Limited, priority 2016, published 2019)
